Measurements published in the supplement of paper PMC12317010.
Structures can show the parent of a compound that is named as a salt.

Test: collision cross section in nitrogen (drift tube, single-field); higher = larger gas-phase ion size
[1] = ion type: [M-H], ion source: ESI, ion mode: Negative
[2] = ion type: [M+H], ion source: APCI, ion mode: Positive
[3] = ion type: [M+H], ion source: ESI, ion mode: Positive
[4] = ion type: [M+Na], ion source: ESI, ion mode: Positive
[5] = ion type: [M+], ion source: APCI, ion mode: Positive
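Also: chemical standards at 10 µM analysed by drift tube IMS-QTOF MS in about 3.95 torr nitrogen, mean of duplicate injections differing ≤1%, mass error below 10 ppm.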

With Oc1ccc(Cl)cc1Cl [2,4-Dichlorophenol] the “collision cross section in nitrogen” value [1] was 123.6 Å².

For O=C(O)c1cccnc1 [Sodium nicotinate], the “collision cross section in nitrogen” value [2] was 123.5 Å² and the “collision cross section in nitrogen” value [3] was 124.5 Å².

For CC1(C)[C@H](/C=C(\Cl)C(F)(F)F)[C@@H]1C(=O)O[C@@H](C#N)c1cccc(Oc2ccccc2)c1 [lambda-Cyhalothrin], the “collision cross section in nitrogen” value [4] was 190.4 Å².

With Cc1ccc(N(C)C)cc1 [N,N,4-Trimethylaniline] the “collision cross section in nitrogen” value [4] was 128.2 Å².

With C=CC(=O)OCC(CC)(COC(=O)C=C)COC(=O)C=C [Trimethylolpropane triacrylate] the “collision cross section in nitrogen” value [4] was 165.9 Å².

For O=c1[nH]cnc2c1ncn2[C@H]1CC[C@@H](CO)O1 [Didanosine], the “collision cross section in nitrogen” value [1] was 153.5 Å².

In the case of COP(=S)(OC)Oc1ccc(Sc2ccc(OP(=S)(OC)OC)cc2)cc1 [Temephos], the “collision cross section in nitrogen” value [2] is reported as 189.4 Å², the “collision cross section in nitrogen” value [3] is reported as 189.5 Å² and the “collision cross section in nitrogen” value [4] is reported as 196.3 Å².

For CCCC(C)(COC(N)=O)COC(=O)NC(C)C (stereo unspecified) [Carisoprodol], the “collision cross section in nitrogen” value [4] was 172.2 Å².

In the case of CC1COc2ccccc2N1 (stereo unspecified) [3-Methyl-3,4-dihydro-2H-1,4-benzoxazine], the “collision cross section in nitrogen” value [2] is reported as 130.4 Å² and the “collision cross section in nitrogen” value [3] is reported as 131.2 Å².

For CCc1cccc(C)c1N(C(=O)CS(=O)(=O)O)C(C)COC (stereo unspecified) [Metolachlor ESA], the “collision cross section in nitrogen” value [4] was 177.4 Å² and the “collision cross section in nitrogen” value [1] was 173.9 Å².

With c1ccc2[nH]ccc2c1 [Indole] the “collision cross section in nitrogen” value [1] was 119.5 Å².

For CCCCCCCCC(=O)NCc1ccc(O)c(OC)c1 [N-Vanillylnonanamide], the “collision cross section in nitrogen” value [4] was 178 Å².

With COP(=O)(CCC(=O)NCO)OC [Dimethyl (3-((hydroxymethyl)amino)-3-oxopropyl)phosphonate] the “collision cross section in nitrogen” value [4] was 144 Å².

With Cc1cc(Br)ccc1NC(=O)CCl [2-Chloro-N-(2-methyl-4-bromophenyl)acetamide] the “collision cross section in nitrogen” value [1] was 146 Å².

With O=S(=O)(O)c1ccc2cc(O)c(S(=O)(=O)O)cc2c1 [Disodium 3-hydroxynaphthalene-2,7-disulfonate] the “collision cross section in nitrogen” value [1] was 160.1 Å².

In the case of CC(C)(C)c1ccc(CSc2cnn(C(C)(C)C)c(=O)c2Cl)cc1 [Pyridaben], the “collision cross section in nitrogen” value [4] is reported as 208.8 Å².

With Nc1cc([N+](=O)[O-])ccc1C(=O)O [4-Nitroanthranilic acid] the “collision cross section in nitrogen” value [1] was 133.5 Å².

For CCCC(=O)c1cc(O)c(O)cc1O [2',4',5'-Trihydroxybutyrophenone], the “collision cross section in nitrogen” value [1] was 141.3 Å².

With O=[N+]([O-])O [Potassium nitrate] the “collision cross section in nitrogen” value [1] was 104.9 Å².

For COc1ccccc1OCC(O)CO (stereo unspecified) [Guaifenesin], the “collision cross section in nitrogen” value [4] was 147.2 Å².

In the case of O=C1OC2(c3ccc(O)cc3Oc3cc(O)ccc32)c2ccccc21 [Fluorescein sodium], the “collision cross section in nitrogen” value [2] is reported as 174.3 Å², the “collision cross section in nitrogen” value [3] is reported as 173.8 Å² and the “collision cross section in nitrogen” value [4] is reported as 189.1 Å². For the same molecule, the “collision cross section in nitrogen” value [1] was 176.1 Å².

With C=CCO/N=C(\CCC)C1C(=O)CC(C)(C)C(C(=O)OC)C1=O (stereo unspecified) [Alloxydim sodium] the “collision cross section in nitrogen” value [2] was 175.7 Å², the “collision cross section in nitrogen” value [3] was 175.7 Å² and the “collision cross section in nitrogen” value [4] was 179.4 Å². For the same molecule, the “collision cross section in nitrogen” value [1] was 177.7 Å².

For CCCCCCCCCCOS(=O)(=O)O [Sodium decyl sulfate], the “collision cross section in nitrogen” value [1] was 158.1 Å².

With Nc1cccc2ccccc12 [1-Naphthylamine] the “collision cross section in nitrogen” value [3] was 127.6 Å² and the “collision cross section in nitrogen” value [5] was 125 Å².

In the case of Oc1ccncc1 [4-Pyridinol], the “collision cross section in nitrogen” value [2] is reported as 116 Å², the “collision cross section in nitrogen” value [3] is reported as 116.2 Å² and the “collision cross section in nitrogen” value [1] is reported as 113.9 Å².

With c1ccc2c(c1)-c1ccc3ccc4cccc5cc-2c1c3c45 [Indeno[1,2,3-cd]pyrene] the “collision cross section in nitrogen” value [5] was 156.7 Å².

For Cn1c(=O)cc(Oc2ccc(F)cc2F)c2cnc(NCC(C)(C)O)nc21, the “collision cross section in nitrogen” value [2] was 192.8 Å², the “collision cross section in nitrogen” value [3] was 192.4 Å² and the “collision cross section in nitrogen” value [4] was 205.6 Å². For the same molecule, the “collision cross section in nitrogen” value [1] was 193.4 Å².

With CC(c1ccc(O)cc1)c1ccc(O)cc1 [Bisphenol E] the “collision cross section in nitrogen” value [1] was 158.3 Å².

For CCCCOCCOCCOCc1cc2c(cc1CCC)OCO2 [Piperonyl butoxide], the “collision cross section in nitrogen” value [4] was 179.9 Å².
